# pIC50: −log10 of the molar value.
# Target: T1, PI3Kalpha (Homo sapiens, UniProt P42336)
# T1 construct: His (N); host or cells: SF9 insect cells (baculovirus)
# Assay: Human PI3Kα enzyme assay (HTRF)
# Type: biochemical
# Conditions: ATP 25 uM, di-C8 PI(4,5)P2, 30 minutes at room temperature, values given only as potency bins
# Excerpt: The catalytic subunits of PI3Ks are cloned into either pDEST8 (p110 alpha) or pDEST10 (p110beta, p110delta, and p110gamma) as N-terminal His tagged fusion proteins using the Gateway system (Invitrogen, catalog#11804-010 for pDEST8 and 11806-015 for pDEST10). The sequences are verified before recombinant protein expression using the Baculovirus Expression System with Gateway® Technology. The accession numbers for the subunits are as follows:
# The regulatory subunits of PI3Ks are cloned into pDEST8 as un-tagged protein using the Gateway system (Catalog#11804-010). The sequences are verified before recombinant protein expression using the Baculovirus Expression System with Gateway® Technology. The accession numbers for the subunits are as following: p85 alpha (GB: BC030815) p101 (GB: AB028925)
# For expression of the p110 complexes, the p85 (MOI of 4) is co-infected with p110 alpha, beta, and delta respectively (1 MOI) in SF9 cells and harvested at 60 hours post co-infection. P110 gamma was infected at 1 MOI and harvested at 60 hours post infection.
# For purification, PI3Ks are purified by Ni-NTA Agarose (Qiagen #30250) followed by Mono Q 10/100 GL (Ge Healthcare #17-5167-01). VPS34 is purified by Glutathione Sepharose 4 Fast Flow (GE Healthcare #17-5132-03) followed by HiTrap Q (GE Healthcare #17-1153-01).
# 1) Human PI3Kα Enzyme Assay Method
# 0.5 uL compounds in DMSO are added to wells of a 384 well microtitre plate (Corning 3575). At room temperature: 10 ul PI3K reaction buffer (50 mM Hepes, 5 mM DTT, 150 mM NaCl, 10 mM beta-glycerophosphate, 10 mM MgCl2, 0.25 mM sodium cholate and 0.001% CHAPS, pH 7.00) containing ATP (25 uM, Promega) is added followed immediately by 10 ul PI3K reaction buffer containing di-C8 PI(4,5)P2 (3.5 uM, CellSignals) and PI3Kalpha (0.4875 nM, Millennium Protein Sciences Group) and the mixture is incubated with shaking at room temperature for 30 minutes. Then 5 ul PI3K stop mix (50 mM Hepes, 5 mM DTT, 150 mM NaCl, 0.01% Tween-20, 15 mM EDTA and 25 nM biotin-PI(3,4,5)P3 (Echelon) is added to quench the reaction followed immediately by addition of 5 ul HTRF detection mix (50 mM Hepes, 5 mM DTT, 150 mM NaCl, 0.01% Tween-20, 40 mM KF, 10 nM GST:GRP-1 PH domain (Millennium Protein Sciences Group), 15 nM Streptavidin-XL (CisBio) and 0.375 nM anti-GST Eu++ antibody (CisBio) at pH 7.00). The plates are then incubated for 1 hour at room temperature with shaking and then read on a BMG PheraStar Plus reader.
# T1 sequence (P42336 whole entry): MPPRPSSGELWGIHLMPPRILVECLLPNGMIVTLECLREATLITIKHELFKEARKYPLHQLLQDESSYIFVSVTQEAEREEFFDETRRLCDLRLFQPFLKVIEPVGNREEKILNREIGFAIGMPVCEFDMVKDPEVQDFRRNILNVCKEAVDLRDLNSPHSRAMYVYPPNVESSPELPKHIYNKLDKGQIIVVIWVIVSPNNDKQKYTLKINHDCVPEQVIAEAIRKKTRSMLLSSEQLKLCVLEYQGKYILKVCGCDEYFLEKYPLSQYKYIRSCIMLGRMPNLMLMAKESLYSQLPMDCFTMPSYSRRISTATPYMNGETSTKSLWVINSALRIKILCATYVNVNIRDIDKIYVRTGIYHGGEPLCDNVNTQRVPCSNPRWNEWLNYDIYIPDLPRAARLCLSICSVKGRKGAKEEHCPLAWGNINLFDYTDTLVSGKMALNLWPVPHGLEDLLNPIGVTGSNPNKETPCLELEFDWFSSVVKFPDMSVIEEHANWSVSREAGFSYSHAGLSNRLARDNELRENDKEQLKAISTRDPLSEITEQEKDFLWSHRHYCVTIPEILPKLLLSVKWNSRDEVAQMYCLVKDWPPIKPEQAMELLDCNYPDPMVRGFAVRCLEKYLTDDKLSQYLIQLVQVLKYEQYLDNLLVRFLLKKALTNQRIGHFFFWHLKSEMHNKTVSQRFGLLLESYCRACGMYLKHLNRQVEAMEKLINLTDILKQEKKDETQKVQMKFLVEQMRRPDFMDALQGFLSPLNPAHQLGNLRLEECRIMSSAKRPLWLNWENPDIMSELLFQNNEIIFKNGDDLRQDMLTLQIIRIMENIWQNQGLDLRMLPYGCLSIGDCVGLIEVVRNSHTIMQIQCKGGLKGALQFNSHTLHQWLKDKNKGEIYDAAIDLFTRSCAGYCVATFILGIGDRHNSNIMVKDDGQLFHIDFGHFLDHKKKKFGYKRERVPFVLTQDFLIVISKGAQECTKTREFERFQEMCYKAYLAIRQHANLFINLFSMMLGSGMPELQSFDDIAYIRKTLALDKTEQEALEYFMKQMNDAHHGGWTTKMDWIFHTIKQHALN
# T1 sequence (P27986 whole entry partner): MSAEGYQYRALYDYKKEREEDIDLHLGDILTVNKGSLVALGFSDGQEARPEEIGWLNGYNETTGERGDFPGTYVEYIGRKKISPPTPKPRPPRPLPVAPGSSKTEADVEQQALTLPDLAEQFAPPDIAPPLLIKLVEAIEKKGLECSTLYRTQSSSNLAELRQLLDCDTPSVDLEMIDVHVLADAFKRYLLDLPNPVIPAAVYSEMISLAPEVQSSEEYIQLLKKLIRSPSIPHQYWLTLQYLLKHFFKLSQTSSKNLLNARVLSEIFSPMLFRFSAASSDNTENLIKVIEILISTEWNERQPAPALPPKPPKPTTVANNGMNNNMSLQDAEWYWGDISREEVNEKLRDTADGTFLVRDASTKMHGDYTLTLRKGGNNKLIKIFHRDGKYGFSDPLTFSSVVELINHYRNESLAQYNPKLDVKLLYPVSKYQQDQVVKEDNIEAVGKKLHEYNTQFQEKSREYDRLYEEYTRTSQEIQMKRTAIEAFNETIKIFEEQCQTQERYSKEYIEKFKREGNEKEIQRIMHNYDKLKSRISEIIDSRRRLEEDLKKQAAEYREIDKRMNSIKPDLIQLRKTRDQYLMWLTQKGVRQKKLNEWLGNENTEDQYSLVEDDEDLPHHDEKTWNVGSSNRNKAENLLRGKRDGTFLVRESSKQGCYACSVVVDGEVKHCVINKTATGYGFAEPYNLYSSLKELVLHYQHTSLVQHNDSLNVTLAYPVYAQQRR
row,pIC50,SMILES
1,< 6.00,N#Cc1c(-c2ccnc(NC(=O)c3ccccc3)c2)sc(-c2nnc[nH]2)c1-c1ccc(Cl)cc1Cl [Compound 1]
2,< 6.00,CS(=O)(=O)Nc1cc(-c2sc(-c3nnc[nH]3)c(-c3ccc(Cl)cc3Cl)c2C#N)ccn1 [Compound 4]
3,< 6.00,Cc1cnc(N)nc1-c1sc(-c2nnc[nH]2)c(-c2ccc(Cl)cc2Cl)c1C#N [Compound 8]
4,> 7.00,CNc1nccc(-c2sc(-c3ncc[nH]3)c(-c3ccc(Cl)cc3Cl)c2C#N)n1 [Compound 16]
5,< 6.00,COc1cc(-c2sc(-c3nnc[nH]3)c(-c3ccc(Cl)cc3Cl)c2C#N)ccn1 [Compound 24]
6,< 6.00,COc1ccc(CNc2cc(-c3sc(-c4nnc[nH]4)c(-c4ccc(Cl)cc4Cl)c3C#N)ccn2)c(OC)c1 [Compound 33]
7,< 6.00,CNC(=O)c1cc(-c2sc(-c3nnc[nH]3)c(-c3ccc(Cl)cc3Cl)c2C#N)ccn1 [Compound 44]
8,6.00 to 7.00,N#Cc1c(-c2ccnc(N)c2)sc(C(N)=O)c1-c1ccc(Cl)cc1Cl [Compound 60]
9,> 7.00,"N#Cc1c(-c2ccnc(N)c2)sc(-c2cnc[nH]2)c1-c1ccc(Cl)cc1Cl [Compound 80, 2-(2-aminopyridin-4-yl)-4-(2,4-dichlorophenyl)-5-(1H-imidazol-5-yl)thiophene-3-carbonitrile]"
10,< 6.00,CNc1cc(-c2cc(-c3ccc(Cl)cc3Cl)c(-c3ncc[nH]3)s2)ncn1 [Compound 84]

# Reference: patent publication US8796314B2, “Heteroaryls and uses thereof” (Millennium Pharmaceuticals, Inc., priority 2009, dated 2014)
